Test results as given in paper PMC5775429, “LY2087101 and dFBr share transmembrane binding sites in the (α4)3(β2)2 Nicotinic Acetylcholine Receptor” (Scientific Reports, 2018).
Where “and” joins values, the source holds several entries; their conditions need not be identical. Equal values may be shown once.

Experiments:
Test in all cases: Two-electrode voltage-clamp of ACh-induced currents in Xenopus oocytes
Assay type in all cases: cell-based
(α4L311V)3(β2)2 nAChR = (α4L311V)3(β2)2 nAChR (Homo sapiens, UniProt P43681, L311V); settings: 10 µM ACh + 1 µM PAM vs 10 µM ACh alone
Experimental: (§1) For amino acid substitutions within the α4 nAChR subunit, point mutations were introduced into pSP64ployA plasmid with cDNA encoding for human α4 nAChR subunit with mutagenic primer pairs using the Quick Change II Site-Directed Mutagenesis Kit (Agilent Technologies) then confirmed by DNA sequencing (GENEWIZ, LLC, South Plainfield, NJ). cRNA transcripts suitable for oocyte expression were prepared in vitro from linearized plasmids [α3 (BamH1), α4 (AseI), β2 (PvuII), β4 (XhoI)] using mMESSAGE mMACHINE high yield capped RNA transcription kits (Ambion) and purified on NucAway Spin column (Invitrogen). cRNA concentration was determined by spectroscopy (Concentration (ug/ul) = Abs260 * 40), aliquoted and stored at −80 °C until used.
(§2) Ovarian lobules were surgically harvested from oocytes-positive female Xenopus laevis (NASCO, Fort Atkinson, WI) according to an animal use protocol approved by the Texas A&M Health Sciences Center Institutional Animals Care and Use Committee. The Texas A&M Health Sciences Center Research Facility is registered as an animal research facility with the United States Department of Agriculture and is fully accredited by the American Association for Accreditation of Laboratory Animal Care (AAALAC). For oocytes defolliculation, ovarian lobes were treated with 3 mg/ml collagenase type 2 (Worthington Biomedical, Lakewood, NJ) in Ca + 2-free buffer (85 mM NaCl, 2.5 mM KCl, 1 mM MgCl2, 5 mM HEPES, pH 7.6). Collagenase treatment was allowed to proceed for 3 hours at room temperature with gentle shaking then oocytes were washed several times with buffer to remove collagenase then with ND96-gentamicine buffer. Healthy Stage V and VI oocytes were visually selected and maintained at 18 °C in modified ND96-gentamicine buffer (96 mM NaCl, 2 mM KCl, 1.8 mM CaCl2, 1 mM MgCl2, 5 mM HEPES, 50 µg/ml gentamicin, pH 7.6). Oocytes were injected with 50–100 ng of the desired nAChR subunits cRNA mix at ratios of 8α:1β or 1α:8β to express nAChRs with subunit stoichiometries of 3α:2β (low agonist sensitivity) or 2α:3β (high agonist sensitivity), respectively.
(§3) Oocytes were continuously perfused with recording buffer (100 mM NaCl, 2 mM KCl, 1 mM CaCl2, 0.8 mM MgCl2, 1 mM EGTA, 10 mM Hepes, pH 7.5) except during periods of drug applications.

(α4I607T)3(β2)2 nAChR = target: T1, (α4I607T)3(β2)2 nAChR (Homo sapiens, UniProt P17787+P43681, I607T)
T1 construct: expressed in transfected cells; host or cells: Xenopus laevis oocytes injected with cRNA
Experimental: as §1, §2, §3

(α4E308V)3(β2)2 nAChR = (α4E308V)3(β2)2 nAChR (Homo sapiens, UniProt P43681, E308V)
Experimental: as §1, §2, §3

(α4T261D)3(β2)2 nAChR = target: T2, (α4T261D)3(β2)2 nAChR (Homo sapiens, UniProt P17787+P43681, T261D)
T2 construct: expressed in transfected cells; host or cells: Xenopus laevis oocytes injected with cRNA
Experimental: as §1, §2, §3

(α4M605I)3(β2)2 nAChR = target: T3, (α4M605I)3(β2)2 nAChR (Homo sapiens, UniProt P17787+P43681, M605I)
T3 construct: expressed in transfected cells; host or cells: Xenopus laevis oocytes injected with cRNA
Experimental: as §1, §2, §3

(α4L256F)3(β2)2 nAChR = (α4L256F)3(β2)2 nAChR (Homo sapiens, UniProt P43681, L256F)
Experimental: as §1, §2, §3

(α4F606Y)3(β2)2 nAChR = target: T4, (α4F606Y)3(β2)2 nAChR (Homo sapiens, UniProt P17787+P43681, F606Y)
T4 construct: expressed in transfected cells; host or cells: Xenopus laevis oocytes injected with cRNA
Experimental: as §1, §2, §3

(α4C259V)3(β2)2 nAChR = (α4C259V)3(β2)2 nAChR (Homo sapiens, UniProt P43681, C259V); settings: 10 µM ACh + 1 µM PAM vs 10 µM ACh alone
Experimental: as §1, §2, §3

(α4I275V)3(β2)2 nAChR = target: T5, (α4I275V)3(β2)2 nAChR (Homo sapiens, UniProt P17787+P43681, I275V)
T5 construct: expressed in transfected cells; host or cells: Xenopus laevis oocytes injected with cRNA
Experimental: as §1, §2, §3

(α4G613L)3(β2)2 nAChR = (α4G613L)3(β2)2 nAChR (Homo sapiens, UniProt P43681, G613L)
Experimental: as §1, §2, §3

(α4F316L)3(β2)2 nAChR = (α4F316L)3(β2)2 nAChR (Homo sapiens, UniProt P43681, F316L)
Experimental: as §1, §2, §3

(α4L260M)3(β2)2 nAChR = target: T6, (α4L260M)3(β2)2 nAChR (Homo sapiens, UniProt P17787+P43681, L260M)
T6 construct: expressed in transfected cells; host or cells: Xenopus laevis oocytes injected with cRNA
Experimental: as §1, §2, §3

(α4L291V)3(β2)2 nAChR = target: T7, (α4L291V)3(β2)2 nAChR (Homo sapiens, UniProt P17787+P43681, L291V)
T7 construct: expressed in transfected cells; host or cells: Xenopus laevis oocytes injected with cRNA
Experimental: as §1, §2, §3

(α4C259F)3(β2)2 nAChR = (α4C259F)3(β2)2 nAChR (Homo sapiens, UniProt P43681, C259F); settings: 10 µM ACh + 1 µM PAM vs 10 µM ACh alone
Experimental: as §1, §2, §3

(α4H332Y)3(β2)2 nAChR = target: T8, (α4H332Y)3(β2)2 nAChR (Homo sapiens, UniProt P17787+P43681, H332Y)
T8 construct: expressed in transfected cells; host or cells: Xenopus laevis oocytes injected with cRNA
Experimental: as §1, §2, §3

α4β4 nAChR = target: T9, α4β4 nAChR (Homo sapiens, UniProt P30926+P43681); settings: 1 μM PAM
T9 construct: expressed in transfected cells; host or cells: Xenopus laevis oocytes injected with cRNA
Experimental: (§4) Next, Xenopus oocytes were injected with RNA mixes of […], α3:β4, […], or α4:β4 at ratios of 8:1, 1:1, or 1:8 to express nAChRs with different subunit composition and with various α:β ratios.
as §2, §3

α4β2 nAChR = target: T10, α4β2 nAChR (Homo sapiens, UniProt P17787+P43681); settings: 1 μM PAM
T10 construct: expressed in transfected cells; host or cells: Xenopus laevis oocytes injected with cRNA
Experimental: as §4, §2, §3

[1] = 10 µM ACh + 1 µM PAM vs 10 µM ACh alone
[2] = normalized to peak current by 10 µM ACh alone, curve fit
[3] = read-out: LY2087101 potentiation EC50
[4] = ACh concentration-response curve, normalized to 1 mM ACh alone

T8 sequence (P43681 29-627 H332Y limits assumed): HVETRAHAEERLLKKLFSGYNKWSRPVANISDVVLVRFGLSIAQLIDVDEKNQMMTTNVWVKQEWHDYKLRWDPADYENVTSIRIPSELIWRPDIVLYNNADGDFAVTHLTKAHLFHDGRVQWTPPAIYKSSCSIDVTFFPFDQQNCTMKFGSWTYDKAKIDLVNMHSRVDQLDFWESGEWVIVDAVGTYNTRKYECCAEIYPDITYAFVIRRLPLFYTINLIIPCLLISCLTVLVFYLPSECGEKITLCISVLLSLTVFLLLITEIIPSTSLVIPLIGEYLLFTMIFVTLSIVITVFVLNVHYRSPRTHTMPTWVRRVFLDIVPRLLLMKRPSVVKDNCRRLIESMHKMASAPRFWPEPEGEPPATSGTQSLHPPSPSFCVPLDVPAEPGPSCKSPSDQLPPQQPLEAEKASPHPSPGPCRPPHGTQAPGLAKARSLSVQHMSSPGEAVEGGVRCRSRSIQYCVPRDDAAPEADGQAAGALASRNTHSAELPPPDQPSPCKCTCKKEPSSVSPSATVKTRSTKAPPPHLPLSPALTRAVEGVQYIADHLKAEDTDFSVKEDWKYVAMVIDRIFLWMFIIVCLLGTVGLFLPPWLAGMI
T8 sequence (P17787 26-502): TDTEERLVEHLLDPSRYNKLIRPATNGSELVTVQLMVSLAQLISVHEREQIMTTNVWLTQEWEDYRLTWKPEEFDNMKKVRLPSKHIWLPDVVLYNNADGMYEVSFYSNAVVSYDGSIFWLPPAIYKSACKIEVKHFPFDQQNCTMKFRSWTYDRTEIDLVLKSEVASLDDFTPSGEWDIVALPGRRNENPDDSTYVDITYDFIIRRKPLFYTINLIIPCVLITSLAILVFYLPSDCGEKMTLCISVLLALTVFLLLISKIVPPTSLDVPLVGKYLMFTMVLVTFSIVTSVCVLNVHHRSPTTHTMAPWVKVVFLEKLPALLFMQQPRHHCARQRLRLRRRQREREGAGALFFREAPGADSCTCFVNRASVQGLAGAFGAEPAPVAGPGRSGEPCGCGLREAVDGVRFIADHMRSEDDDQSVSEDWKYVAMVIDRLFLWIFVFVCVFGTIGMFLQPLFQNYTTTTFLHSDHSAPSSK
T2 sequence (P43681 29-627 T261D limits assumed): as the sequence (P43681 29-627 H332Y limits assumed) above, with T233D, Y304H counted along it
T2 sequence (P17787 26-502): as the sequence (P17787 26-502) above
T4 sequence (P43681 29-627 F606Y limits assumed): as the sequence (P43681 29-627 H332Y limits assumed) above, with Y304H, F578Y counted along it
T4 sequence (P17787 26-502): as the sequence (P17787 26-502) above
T7 sequence (P43681 29-627 L291V limits assumed): as the sequence (P43681 29-627 H332Y limits assumed) above, with L263V, Y304H counted along it
T7 sequence (P17787 26-502): as the sequence (P17787 26-502) above
T3 sequence (P43681 29-627 M605I limits assumed): as the sequence (P43681 29-627 H332Y limits assumed) above, with Y304H, M577I counted along it
T3 sequence (P17787 26-502): as the sequence (P17787 26-502) above
T6 sequence (P43681 29-627 L260M limits assumed): as the sequence (P43681 29-627 H332Y limits assumed) above, with L232M, Y304H counted along it
T6 sequence (P17787 26-502): as the sequence (P17787 26-502) above
T1 sequence (P43681 29-627 I607T limits assumed): as the sequence (P43681 29-627 H332Y limits assumed) above, with Y304H, I579T counted along it
T1 sequence (P17787 26-502): as the sequence (P17787 26-502) above
Sequence of (α4E308V)3(β2)2 nAChR (P43681 29-627 E308V limits assumed): as the sequence (P43681 29-627 H332Y limits assumed) above, with E280V, Y304H counted along it
Sequence of (α4E308V)3(β2)2 nAChR (P17787 26-502 partner): as the sequence (P17787 26-502) above
Sequence of (α4F316L)3(β2)2 nAChR (P43681 29-627 F316L limits assumed): as the sequence (P43681 29-627 H332Y limits assumed) above, with F288L, Y304H counted along it
Sequence of (α4F316L)3(β2)2 nAChR (P17787 26-502 partner): as the sequence (P17787 26-502) above
Sequence of (α4L256F)3(β2)2 nAChR (P43681 29-627 L256F limits assumed): as the sequence (P43681 29-627 H332Y limits assumed) above, with L228F, Y304H counted along it
Sequence of (α4L256F)3(β2)2 nAChR (P17787 26-502 partner): as the sequence (P17787 26-502) above
Sequence of (α4G613L)3(β2)2 nAChR (P43681 29-627 G613L limits assumed): as the sequence (P43681 29-627 H332Y limits assumed) above, with Y304H, G585L counted along it
Sequence of (α4G613L)3(β2)2 nAChR (P17787 26-502 partner): as the sequence (P17787 26-502) above
T5 sequence (P43681 29-627 I275V limits assumed): as the sequence (P43681 29-627 H332Y limits assumed) above, with I247V, Y304H counted along it
T5 sequence (P17787 26-502): as the sequence (P17787 26-502) above
Sequence of (α4C259V)3(β2)2 nAChR (P43681 29-627 C259V limits assumed): as the sequence (P43681 29-627 H332Y limits assumed) above, with C231V, Y304H counted along it
Sequence of (α4C259V)3(β2)2 nAChR (P17787 26-502 partner): as the sequence (P17787 26-502) above
Sequence of (α4L311V)3(β2)2 nAChR (P43681 29-627 L311V limits assumed): as the sequence (P43681 29-627 H332Y limits assumed) above, with L283V, Y304H counted along it
Sequence of (α4L311V)3(β2)2 nAChR (P17787 26-502 partner): as the sequence (P17787 26-502) above
T9 sequence (P43681 29-627 limits assumed): as the sequence (P43681 29-627 H332Y limits assumed) above, with Y304H counted along it
T9 sequence (P30926 22-498): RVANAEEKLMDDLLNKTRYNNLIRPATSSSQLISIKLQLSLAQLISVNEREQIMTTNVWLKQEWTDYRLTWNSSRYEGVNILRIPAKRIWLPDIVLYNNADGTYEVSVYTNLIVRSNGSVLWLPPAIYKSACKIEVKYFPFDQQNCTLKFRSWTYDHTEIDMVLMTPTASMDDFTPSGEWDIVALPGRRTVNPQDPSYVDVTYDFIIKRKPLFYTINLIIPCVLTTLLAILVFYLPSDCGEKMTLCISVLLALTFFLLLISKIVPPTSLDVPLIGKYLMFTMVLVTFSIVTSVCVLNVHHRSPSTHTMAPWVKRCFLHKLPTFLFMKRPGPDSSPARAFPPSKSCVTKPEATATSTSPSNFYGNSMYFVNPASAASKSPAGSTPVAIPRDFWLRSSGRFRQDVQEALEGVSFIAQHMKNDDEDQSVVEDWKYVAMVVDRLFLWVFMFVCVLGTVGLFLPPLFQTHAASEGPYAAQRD
T10 sequence (P43681 29-627 limits assumed): as the sequence (P43681 29-627 H332Y limits assumed) above, with Y304H counted along it
T10 sequence (P17787 26-502): as the sequence (P17787 26-502) above
Sequence of (α4C259F)3(β2)2 nAChR (P43681 29-627 C259F limits assumed): as the sequence (P43681 29-627 H332Y limits assumed) above, with C231F, Y304H counted along it
Sequence of (α4C259F)3(β2)2 nAChR (P17787 26-502 partner): as the sequence (P17787 26-502) above

## Cc1nc(Nc2ccc(F)cc2)sc1C(=O)c1ccsc1 [LY2087101, [2-[(4-Fluorophenyl)amino]-4-methyl-5-thiazolyl]-3-thienylmethanone]
(α4L311V)3(β2)2 nAChR
  R, potentiation ratio (PR): 15.6 ± 3.2
(α4I607T)3(β2)2 nAChR; [1]
  R, potentiation ratio (PR): 5.8 ± 0.7
(α4I607T)3(β2)2 nAChR; [2]
  LY2087101 potentiation Imax%: 958 ± 32%
(α4I607T)3(β2)2 nAChR; [3]
  EC50: 800 ± 100 nM
(α4E308V)3(β2)2 nAChR; [1]
  R, potentiation ratio (PR): 1.7 ± 0.2
(α4E308V)3(β2)2 nAChR; normalized to 10 µM ACh alone, not from curve fitting, maximum seen at any concentration up to 10 µM LY2087101
  LY2087101 potentiation Imax%: 270 ± 30%
(α4T261D)3(β2)2 nAChR; [1]
  R, potentiation ratio (PR): 1.6 ± 0.1
(α4T261D)3(β2)2 nAChR; [4]
  ACh Imax in the presence of 1 µM LY2087101: 180 ± 23%
(α4T261D)3(β2)2 nAChR; [2]
  LY2087101 potentiation Imax%: 215 ± 29%
(α4T261D)3(β2)2 nAChR; [3]
  EC50: 2400 ± 1600 nM
(α4M605I)3(β2)2 nAChR; [1]
  R, potentiation ratio (PR): 4.5 ± 0.2
(α4M605I)3(β2)2 nAChR; [2]
  LY2087101 potentiation Imax%: 756 ± 27%
(α4M605I)3(β2)2 nAChR; [3]
  EC50: 800 ± 100 nM
(α4L256F)3(β2)2 nAChR; [1]
  R, potentiation ratio (PR): 1.0 ± 0.1
(α4L256F)3(β2)2 nAChR; [4]
  ACh Imax in the presence of 1 µM LY2087101: 104 ± 09%
(α4F606Y)3(β2)2 nAChR; [1]
  R, potentiation ratio (PR): 2.3 ± 0.3
(α4F606Y)3(β2)2 nAChR; [4]
  ACh Imax in the presence of 1 µM LY2087101: 144 ± 13% and 144 ± 013%
(α4F606Y)3(β2)2 nAChR; [2]
  LY2087101 potentiation Imax%: 195 ± 13%
(α4F606Y)3(β2)2 nAChR; [3]
  EC50: 300 ± 200 nM
(α4C259V)3(β2)2 nAChR
  R, potentiation ratio (PR): 5.2 ± 0.6
(α4I275V)3(β2)2 nAChR; [1]
  R, potentiation ratio (PR): 3.7 ± 0.5
(α4I275V)3(β2)2 nAChR; [3]
  EC50: 1700 ± 200 nM
(α4G613L)3(β2)2 nAChR; [1]
  R, potentiation ratio (PR): 1.09 ± 0.1
(α4G613L)3(β2)2 nAChR; [4]
  ACh Imax in the presence of 1 µM LY2087101: 112 ± 9%
(α4F316L)3(β2)2 nAChR; [1]
  R, potentiation ratio (PR): 1.1 ± 0.1
(α4F316L)3(β2)2 nAChR; [4]
  ACh Imax in the presence of 1 µM LY2087101: 122 ± 13%
(α4L260M)3(β2)2 nAChR; [1]
  R, potentiation ratio (PR): 1.6 ± 0.2
(α4L260M)3(β2)2 nAChR; [4]
  ACh Imax in the presence of 1 µM LY2087101: 264 ± 80%
(α4L260M)3(β2)2 nAChR; [2]
  LY2087101 potentiation Imax%: 269 ± 21%
(α4L260M)3(β2)2 nAChR; [3]
  EC50: 2500 ± 600 nM
(α4L291V)3(β2)2 nAChR; [1]
  R, potentiation ratio (PR): 3.7 ± 0.6
(α4L291V)3(β2)2 nAChR; [2]
  LY2087101 potentiation Imax%: 719 ± 20%
(α4L291V)3(β2)2 nAChR; [3]
  EC50: 1600 ± 100 nM
(α4C259F)3(β2)2 nAChR
  R, potentiation ratio (PR): 3.2 ± 0.4
(α4H332Y)3(β2)2 nAChR; [1]
  R, potentiation ratio (PR): 4.2 ± 0.5
(α4H332Y)3(β2)2 nAChR; [2]
  LY2087101 potentiation Imax%: 573 ± 20%
(α4H332Y)3(β2)2 nAChR; [3]
  EC50: 1300 ± 100 nM
α4β4 nAChR
  potentiation of ACh responses: potentiated
α4β2 nAChR
  potentiation of ACh responses: potentiated
